Earlier results in patent publication US7902399B2, “Fatty acids analogous” (Thia Medica AS, priority 2000, dated 2011).

Settings: rat

CCCCCCCCCCCCCCSCC(=O)O [TTA]
metabolite formation in vivo (Δ9-desaturase): a desaturated product of TTA is formed in vivo
